According to patent US11001569B2, “6-membered heteroaromatic substituted cyanoindoline derivatives as NIK inhibitors” (Janssen Pharmaceutica NV, priority 2016, dated 2021):
Several values for one entry are separate records, joined by “and”; a condition that tells them apart may be missing. Equal entries are not always repeated. Where two headings read alike, the source gives them in different places.

Columns and labels:
[1] = tested on: KMS12-BM (NIK WT) multiple myeloma cells; assay: Antiproliferative activity on KMS12-BM multiple myeloma cells (CellTiter-Glo); type: cell-based, human; settings: 96 hr treatment, averaged values, read-out: KMS-12 Proliferation inhibition (IC50 (nM))
Outline: (§1)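 Cells plated at 15000 (JJN3) or 20000 (KMS12BM) per well and treated 96 h at 37° C, 5% CO2, final DMSO 0.3%, 9-point 1:3 dilutions. Viability by CellTiter-Glo luminescence; time-zero blank subtracted, growth expressed as percent of untreated control.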

[2] = target: recombinant human NF-kappaB-inducing Kinase (NIK/MAP3K14) (Homo sapiens, UniProt Q99558); assay: Inhibition of auto-phosphorylation of recombinant human NIK/MAP3K14 activity (AlphaScreen); type: biochemical; settings: 25 microM ATP, averaged over all measurements on all batches
[3] = tested on: P-IKKα levels in L363 (NIK translocated multiple myeloma) cells; assay: Effect of compounds on P-IKKα levels in L363 cells (Mesoscale sandwich immuno-assay); type: cell-based, human; settings: 2 hr treatment, averaged values, read-out: Inhibition of pIKKα_L-363 (IC50 (nM))
Outline: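 BAFF-stimulated (1 μg/ml stock) L363 cells preincubated 24 hr at 37° C, then treated 2 hr with compound (final 1% DMSO, 8-point 1:3 dilutions). Lysate P-IKKα measured by Mesoscale sandwich immunoassay; IC50 from sigmoidal fit of % inhibition versus log concentration.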

[4] = tested on: JJN-3 (NIK translocated) multiple myeloma cells; assay: Antiproliferative activity on JJN-3 multiple myeloma cells (CellTiter-Glo); type: cell-based, human; settings: JJN-3 (NIK translocated) cells, 96 hr treatment, averaged values, read-out: JJN-3 Proliferation inhibition (IC50 (nM))
Outline: as §1

recombinant human NF-kappaB-inducing Kinase (NIK/MAP3K14), sequence (Q99558 whole entry): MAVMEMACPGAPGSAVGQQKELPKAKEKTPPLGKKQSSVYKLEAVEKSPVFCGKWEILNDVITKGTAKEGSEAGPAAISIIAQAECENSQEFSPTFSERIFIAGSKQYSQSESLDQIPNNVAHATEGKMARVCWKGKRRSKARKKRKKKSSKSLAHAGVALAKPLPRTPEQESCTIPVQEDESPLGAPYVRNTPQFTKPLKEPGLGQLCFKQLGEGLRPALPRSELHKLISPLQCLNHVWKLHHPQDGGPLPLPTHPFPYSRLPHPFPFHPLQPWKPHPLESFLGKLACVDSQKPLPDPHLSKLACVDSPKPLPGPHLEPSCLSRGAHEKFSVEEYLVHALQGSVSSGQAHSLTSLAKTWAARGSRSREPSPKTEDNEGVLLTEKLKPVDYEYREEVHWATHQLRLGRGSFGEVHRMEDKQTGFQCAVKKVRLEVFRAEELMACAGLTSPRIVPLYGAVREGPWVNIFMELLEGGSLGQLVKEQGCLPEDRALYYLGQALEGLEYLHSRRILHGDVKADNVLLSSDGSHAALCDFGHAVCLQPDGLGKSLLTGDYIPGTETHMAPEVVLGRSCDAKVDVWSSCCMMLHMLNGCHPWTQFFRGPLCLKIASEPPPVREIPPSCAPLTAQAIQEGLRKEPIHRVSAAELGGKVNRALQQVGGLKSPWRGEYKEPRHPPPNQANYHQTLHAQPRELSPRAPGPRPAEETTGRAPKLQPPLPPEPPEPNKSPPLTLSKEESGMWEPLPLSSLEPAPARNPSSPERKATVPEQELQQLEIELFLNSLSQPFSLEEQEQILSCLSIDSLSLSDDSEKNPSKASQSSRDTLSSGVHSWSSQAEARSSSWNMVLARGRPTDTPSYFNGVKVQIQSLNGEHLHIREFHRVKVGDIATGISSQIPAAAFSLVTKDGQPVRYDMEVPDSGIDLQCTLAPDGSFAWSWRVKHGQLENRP

| melting point | IC50 ([1]; Homo sapiens, KMS-12-BM, 96 h) [nM] | IC50 [2] [nM] | IC50 ([3]; Homo sapiens, L-363, 2 h) [nM] | IC50 ([4]; Homo sapiens, JJN-3, 96 h) [nM] | IC50 [3] [nM] | IC50 [1] [nM] | IC50 [4] [nM] | Compound |
| --- | --- | --- | --- | --- | --- | --- | --- | --- |
| 192 °C | > 10000 | 2.9 | 1.2 | ~295 | – | – | – | COc1nc(/C=C/C(=O)N(C)C)ccc1Nc1nccc(-c2cc(C#N)c3c(c2)[C@@](C)(CO)CN3)n1 [Compound 48] |
| 193 °C | > 10000 | 2.9 | 17.4 | 98 | – | – | – | CCCc1ncc(C#N)cc1Nc1nccc(-c2cc(C#N)c3c(c2)[C@@](C)(CO)CN3)n1 [Compound 63] |
| 198 °C | > 10000 | 4.2 | 22.4 | 148 | – | – | – | CN(C)C(=O)/C=C/c1ccc(Nc2nccc(-c3cc(C#N)c4c(c3)[C@@](C)(CO)CN4)n2)c(CCC2CC2)n1 [Compound 88] |
| 230 °C | > 10000 | 13.2 | 21.4 | 74 | – | – | – | COCCNc1nc(OC)c(Nc2nccc(-c3cc(C#N)c4c(c3)C(C)(CO)CN4)n2)cc1Cl (centres unmarked) [Compound 2] |
| 313 °C | > 10000 | 1 | 8.5 | 120 | – | – | – | Cc1cc(Nc2nccc(-c3cc(C#N)c4c(c3)[C@@](C)(CO)CN4)n2)c(=O)n(C)c1 [Compound 9i] |
| 232 °C | > 10000 | 1.2 | 11 | 25 | – | – | – | Cc1cc(Nc2nccc(-c3cc(C#N)c4c(c3)[C@@](C)(CO)CN4)n2)c(=O)n(CCN2CC(C)NC(C)C2)c1 (some centres unmarked) [Compound 16i] |
| 190 °C | > 10000 | 1.9 | 1.8 | 33 | – | – | – | Cc1cc(Nc2nccc(-c3cc(C#N)c4c(c3)[C@@](C)(CO)CN4)n2)c(=O)n(CCN2CC(F)(F)C2)c1 [Compound 17i] |
| 165 °C | 9550 | 2.1 | 5.6 | 1440 | – | – | – | CNC(=O)c1cnc(C)c(Nc2nccc(-c3cc(C#N)c4c(c3)[C@@](C)(CO)CN4)n2)c1 [Compound 93] |
| 245 °C | ~6460 | 2.3 | 6.3 | 105 | – | – | – | Cc1cnc(CO)cc1Nc1nccc(-c2cc(C#N)c3c(c2)[C@@](C)(CO)CN3)n1 [Compound 156] |
| 114 °C | > 10000 | 5.5 | – | 66 | 13.8 | – | – | Cc1cnc(OCC2CN(C)CCO2)c(Nc2nccc(-c3cc(C#N)c4c(c3)[C@@](C)(CO)CN4)n2)c1 (single isomer, unassigned) [Compound 151] |
| 185 °C | – | 7.2 | – | – | 3 | ~7940 | 148 | Cc1cnc(OC2CN(C)CC2F)c(Nc2nccc(-c3cc(C#N)c4c(c3)[C@@](C)(CO)CN4)n2)c1 (some centres unmarked) [Compound 154] |
| 189 °C | > 10000 | 3.9 | 2.1 | 115 | – | – | – | Cc1cc(Nc2nccc(-c3cc(C#N)c4c(c3)[C@@](C)(CO)CN4)n2)c(C)nc1OCC1COC1 [Compound 160] |
| 120 °C | > 10000 | 23.4 | 5.5 | 32 | – | – | – | Cc1cc(Nc2nccc(-c3cc(C#N)c4c(c3)[C@@](C)(COC(=O)C(C)C)CN4)n2)c(=O)n(CCN2CC(C)OC(C)C2)c1 (some centres unmarked) [Compound 24i] |
| 204 °C | – | 3.8 | – | – | 67.6 | 1350 | 69 | CN1CCCC(COc2ncc(Cl)cc2Nc2nccc(-c3cc(C#N)c4c(c3)[C@@](C)(CO)CN4)n2)C1 (single isomer, unassigned) [Compound 55] |
| 186 °C | > 10000 | 3 | 19.5 | 389 | – | – | – | COCCOc1ncc(F)cc1Nc1nccc(-c2cc(C#N)c3c(c2)[C@@](C)(CO)CN3)n1 [Compound 61] |
| 173 °C | > 10000 | 9.3 | 25.7 | 62 | – | – | – | Cc1cc(Nc2nccc(-c3cc(C#N)c4c(c3)[C@@](C)(CO)CN4)n2)c(OC(C)C)nc1CCN1CC(F)C1 [Compound 157] |
| 126 °C | – | 3.5 | – | – | ~7240 | ~148 | 7 | CN1CCCC(COc2ncc(Cl)cc2Nc2nccc(-c3cc(C#N)c4c(c3)[C@@](C)(CO)CN4)n2)C1 (single isomer, unassigned) [Compound 56] |

| melting point | IC50 ([1]; Homo sapiens, KMS-12-BM, 96 h) [nM] | IC50 [2] [nM] | IC50 ([3]; Homo sapiens, L-363, 2 h) [nM] | IC50 ([4]; Homo sapiens, JJN-3, 96 h) [nM] | IC50 [3] [nM] | IC50 [1] [nM] | IC50 [4] [nM] | Compound |
| --- | --- | --- | --- | --- | --- | --- | --- | --- |
| 136 °C | – | 2.3 | – | – | 2.9 | > 10000 | 30 | Cc1cc(Nc2nccc(-c3cc(C#N)c4c(c3)[C@@](C)(CO)CN4)n2)c(=O)n(CC(C)N2CCOCC2)c1 (single isomer, unassigned) [Compound 23i] |
| 299 °C | > 10000 | 1.9 | 3.2 | ~1120 | – | – | – | CN(C)C(=O)Cn1cc(Cl)cc(Nc2nccc(-c3cc(C#N)c4c(c3)[C@@](C)(CO)CN4)n2)c1=O [Compound 11i] |
| 178 °C | > 10000 | 3.3 | ~141 | 41 | – | – | – | CCCCc1ncc(C#N)cc1Nc1nccc(-c2cc(C#N)c3c(c2)[C@@](C)(CO)CN3)n1 [Compound 66] |
| 186 °C | > 10000 | 3.2 | ~129 | 263 | – | – | – | COCCOc1ncc(C)cc1Nc1nccc(-c2cc(C#N)c3c(c2)[C@@](C)(CO)CN3)n1 [Compound 69] |
| 263 °C | > 10000 | 1.7 | 2.8 | 30 | – | – | – | Cc1cc(Nc2nccc(-c3cc(C#N)c4c(c3)[C@@](C)(CO)CN4)n2)c(C)cn1 [Compound 167] |
| 152 °C | > 10000 | 3 | 2.8 | 31 | – | – | – | COCCN(C)c1nc(C)c(Nc2nccc(-c3cc(C#N)c4c(c3)[C@@](C)(CO)CN4)n2)cc1Cl [Compound 51] |
| 235 °C | > 10000 | 1.3 | 8.9 | 316 | – | – | – | Cc1cc(Nc2nccc(-c3cc(C#N)c4c(c3)[C@@](C)(CO)CN4)n2)c(=O)n(Cc2nccn2C)c1 [Compound 4i] |
| 234 °C | ~7940 | 3 | 4.7 | 28 | – | – | – | C[C@]1(CO)CNc2c(C#N)cc(-c3ccnc(Nc4cc(Cl)cnc4C4CC4)n3)cc21 [Compound 46] |
| 171 °C | > 10000 | 12 | 25.7 | 132 | – | – | – | Cc1cnc(CCN2CC(F)C2)c(Nc2nccc(-c3cc(C#N)c4c(c3)[C@@](C)(CO)CN4)n2)c1 [Compound 150] |
| 281 °C | 871 | ~1.48 | 0.7 | 251 | – | – | – | CN(C)C(=O)COc1ncc(Cl)cc1Nc1nccc(-c2cc(C#N)c3c(c2)[C@@](C)(CO)CN3)n1 [Compound 52] |
| 154 °C | > 10000 | 8.5 | 13.8 | – | – | – | 135 | Cc1cnc(OCC2COCCN2C)c(Nc2nccc(-c3cc(C#N)c4c(c3)[C@@](C)(CO)CN4)n2)c1 (single isomer, unassigned) [Compound 148] |
| > 260 °C | > 10000 | 3 | 1.3 | 60 | – | – | – | COc1cnc(C)cc1Nc1nccc(-c2cc(C#N)c3c(c2)[C@@](C)(CO)CN3)n1 [Compound 162] |
| 234 °C and 237 °C | > 10000 | 2.5 | 13.2 | 16 | – | – | – | COc1ncc(C)cc1Nc1nccc(-c2cc(C#N)c3c(c2)[C@@](C)(CO)CN3)n1 [Compound 59] |
| 138 °C | 9120 | 3.4 | 2.1 | 33 | – | – | – | Cc1cc(Nc2nccc(-c3cc(C#N)c4c(c3)[C@@](C)(CO)CN4)n2)c(=O)n(CC(C)N2CCOCC2)c1 (single isomer, unassigned) [Compound 22i] |
| 318 °C | > 10000 | 4.7 | 20.9 | 513 | – | – | – | CC(C)(O)c1ccc(Nc2nccc(-c3cc(C#N)c4c(c3)[C@@](C)(CO)CN4)n2)c(CCC2CC2)n1 [Compound 81] |
| 129 °C | > 10000 | 3 | 3.7 | 100 | – | – | – | Cc1cc(Nc2nccc(-c3cc(C#N)c4c(c3)[C@@](C)(CO)CN4)n2)c(=O)n(CC2(C)COC2)c1 [Compound 29i] |
| 194 °C | 5130 | 1 | 10 | 275 | – | – | – | Cc1cc(Nc2nccc(-c3cc(C#N)c4c(c3)[C@@](C)(CO)CN4)n2)c(=O)n(Cc2nccn2C2CC2)c1 [Compound 6i] |
